Experiment: acetaminophen cytotoxicity, cell viability by XTT assay
Type: cell-based
Conditions: 48 hrs incubation, control 100%; for viability at 48 h, 5 mM: acetaminophen 5 mM
Description: In the current example, cytotoxicity-induced paracrine EVs were replaced by current existing extracorporeal regimen, in addition to replace depleted body fluids with protective EVs fused during hemodialysis. EV mimetics—Bioxomes or chelator-containing EV mimetics, named Redoxomes as described by us recently in PCT publication no. PCT/IL2019/050391 (incorporated herein by reference) were used. Selected chelator, DSFX—deferoxamine embedded in Redoxomes can be fused with EVs or body fluids, or cells to protect from cytotoxicity damage, prevent liver and kidney failure and mortality, morbidity rate. To establish growth conditions sensitive to proliferation inhibition cytoparameters, calibration of dynamic cell growth parameters was performed by calibration of cell number in CellTiter-Glo Assay (Promega) shown on tables 3 and 4 below in relative units.
Specific protective anti-cytotoxicity example tested on calibrated above assays of EV mimetic proprietary Bioxome, is shown in table below. Cell viability, %, measured by XTT assay (Biological Industries Beit Haemek). Cell viability without treatment was calibrated by dose dependence to serum conditions and cell density. Cell seeding established for 10000, 20000 cells/well in 96 well plates. For RCB001 cells (liver derived mesenchymal like cells)—10,000 cells. For −HepG2 cells—20,000 cells density used. Cells were grown in DMEM plus 10% exosome depleted FBS (ThermoFisher Scientific).

CC(=O)Nc1ccc(O)cc1 [Acetaminophen]
viability at 48 h, 5 mM (RCB001 cells (liver derived mesenchymal like cells)): 57 to 81%
viability at 48 h, 10 mN (RCB001 cells (liver derived mesenchymal like cells), acetaminophen): 46%
viability at 48 h, 5 mM (human, HepG2 cells): 62%
viability at 48 h, 10 mM (human, HepG2 cells, acetaminophen 10 mM): 46%

From US20230072523A1, “PROCESS AND SYSTEM FOR ACELLULAR THERAPY” (Orgenesis Inc., priority 2020, published 2023)
